# Assay results reported in patent US20180119123A1, “CRISPR/CAS-RELATED METHODS AND COMPOSITIONS FOR TREATING HIV INFECTION AND AIDS” (EDITAS MEDICINE, INC., priority 2015, published 2018).
# Entries after “also recorded” stand apart in the source; their conditions may differ.
# Test system: CXCR4 locus
# Assay: T7E1 assay for indels/NHEJ at the CXCR4 locus in Nucleofected CD34+ HSCs
# Type: cell-based, human
# Settings: 40 nM UM171; S. aureus or S. pyogenes Cas9 and CXCR4 gRNA plasmids; 96 hours
# Procedure: For the T7E1 assay, PCR amplicons are approximately 500-700 bp with the intended cut site placed asymmetrically in the amplicon. Following amplification, purification and size-verification of PCR products, DNA is denatured and re-hybridized by heating to 95° C. and then slowly cooling. Hybridized PCR products are then digested with T7 Endonuclease I (or other mismatch-sensitive enzyme) which recognizes and cleaves non-perfectly matched DNA. […] Digestion products may be visualized by gel electrophoresis or by capillary electrophoresis. The fraction of DNA that is cleaved (density of cleavage products divided by the density of cleaved and uncleaved) may be used to estimate a percent NHEJ using the following equation: % NHEJ=(1-(1-fraction cleaved)^1/2). The T7E1 assay is sensitive down to about 2-5% NHEJ.
# Human CD34^+ HSCs cells from mobilized peripheral blood (AllCells) were thawed into StemSpan Serum-Free Expansion Medium (SFEM, StemCell Technologies) containing 100 ng/mL each of the following cytokines: human stem cell factor (SCF), thrombopoietin (TPO), and flt-3 ligand (FL) (all from Peprotech). […]
# In order to detect indels at the CXCR4 locus, T7E1 assays were performed on CXCR4 locus-specific PCR products that were amplified from genomic DNA samples from Nucleofected™ CD34^+ HSCs and then calculated the percentage of NHEJ detected at the CXCR4 locus (FIG. 11B).
compound,measurement,value
"Cn1nnc(-c2ccc3c(c2)[nH]c2nc(Cc4ccccc4)nc(N[C@H]4CC[C@H](N)CC4)c23)n1 [UM171, (1r,4r)-N1-(2-benzyl-7-(2-methyl-2H-tetrazol-5-yl)-9H-pyrimido[4,5-b]indol-4-yl)cyclohexane-1,4-diamine]",Percentage of genome editing at the CXCR4 locus with UM171 pre-treatment versus without,higher percentage of genome editing at the CXCR4 locus; also recorded: increased genome editing at the CXCR4 locus
